In brackets after ≈: the same amount, converted by molar mass. Where two headings read alike, the source gives them in different places.
Assays:
[1] = Test H: aqueous solubility by UV absorbance; format: physicochemical; settings: for solubility: 22° C.
Protocol: Standard curves at the UV λmax (330, 350 and 345 nm for 3-Cl-AHPC, 18 and 16, respectively) were generated using 0.245, 0.163, 0.049 and 0.025 mM 3-Cl-AHPC and 0.380, 0.178, 0.053 and 0.027 mM 18 and 16, which were prepared from 1.0% (wt/vol) solutions of compounds in Me2SO. […] Measurements for maximum solubilities in distilled water (pH 5) and phosphate-buffered saline (PBS, pH 7.2) at 22° C. were made by UV absorbance using solutions obtained after saturation at higher temperatures, overnight incubation at 22° C., and centrifugation to remove undissolved material.

[2] = system: COLO357 cells; experiment: Test I: apoptosis of COLO357 pancreatic cancer cells (Annexin V-FITC/PI); format: cell-based; settings: 1 μM, 48 h
Protocol: (§1) Pancreatic cancer cell lines (COLO357, PANC-1, Capan-2, AsPc-1 cells and MiaPaCa-2 cells obtained from American Type Culture Collection; ATCC, Rockville, Md.) were treated with 1 μM 3-Cl-AHPC and compound 16 for various times. Apoptosis in cells were analyzed by flow cytometry using Annexin V-FITC binding together with propidium iodide (PI) staining (Annexin V-FITC apoptosis Detection Kit 1, BD Biosciences, San Diego, Calif.). Data acquisition was done on a FACS Calibur flow cytometer (BD) and analyzed with CellQuest software (BD Biosciences). 3-Cl-AHPC and compound 16 mediated inhibition of cell growth were determined by 3-(4,5-dimethylthiazol-2-yl)-2,5-diphenyltetrazolium bromide (MTT) assay. The cells were seeded on 96-well plates at a density of 4×10^4 cells/well in a volume of 200 μl culture medium. 1 μM AHP3 and 3-Cl-AHPC in DMSO (final concentration 0.1%) were added to the cells for various times. […] After discarding the medium, MTT precipitates were solubilized with 200 μl DMSO and the plates read on a BioTeK Synergy HT (BioTeK Instrument Inc., Vermont) at an absorbance 570 nm. […] The spheroids were stained with acridine orange/ethidium bromide staining and immediately visualized and photographed with fluorescence microscope (OLYMPUS CKX41). […] Then spheroids were visualized and photographed with a fluorescence microscope.

[3] = system: AsPc-1 cells; experiment: Test I: apoptosis of AsPc-1 pancreatic cancer cells (Annexin V-FITC/PI); format: cell-based; settings: 1 μM, 72 h
Protocol: as §1

[4] = system: COLO357 cells; experiment: Test I: growth inhibition of COLO357 cells (MTT); format: cell-based; settings: 1 μM
Protocol: as §1

[5] = system: Capan-2 cells; experiment: Test I: growth inhibition of Capan-2 cells (MTT); format: cell-based; settings: 1 μM
Protocol: as §1

[6] = system: AsPc-1 cells; experiment: Test I: growth inhibition of AsPc-1 cells (MTT); format: cell-based; settings: 1 μM
Protocol: as §1

[7] = system: MiaPaCa-2 cells; experiment: Test I: growth inhibition of MiaPaCa-2 cells (MTT); format: cell-based; settings: 1 μM
Protocol: as §1

[8] = system: pancreatic cancer stem cells (CD44+/CD24+ cells obtained from PANC-1, Capan-2 and MiaPaCa-2 cells); experiment: Test J: spheroid formation by CD44+/CD24+ pancreatic cancer stem cells; format: cell-based
Protocol: (§2) Apoptosis and Growth Inhibition of Pancreatic Cancer Stem Cells (Obtained from PANC-1, Capan-2 and MiaPaCa-2 Cells) by Compound 16 and 3-Cl-AHPC.
Cells were grown to 70-80% confluence and then trypsinised and washed with sorting buffer (1×PBS, 5% FCS). The cells were resuspended with […] sorting buffer and incubated with 15-20 μl anti-CD24-FITC, anti-CD44-PE primary antibodies for 30 min at ice. The cells were washed and resuspended in 500 μl of sorting buffer and sorted using FACSAria system (BD Immunocytochemistry Systems, Franklin lakes, NJ).
(§3) The sorted CD44^+/CD24^+ cells were suspended in serum-free stem cell medium containing DMEM/F12 (1:1) supplemented with B27 (Life Technologies, Gaithersburg, Md.), 20 ng/ml EGF (Biomol International, Plymouth, Pa.)), 20 ng/ml fibroblast growth factor (Biomol International, Plymouth, Pa.), and 100 μg/ml gentamycin. Approximately 150-200 cells per well were seeded in an ultra low-attachment 96-well plate (Corning Inc, Lowell, Mass.). 3-Cl-AHPC and compound 16 were added the day after cells were plated or after 7 days of spheroid formation. Spheriods were photographed and measured utilizing a Olympus microscope (OLYMPUS CKX41) and Olympus microscope digital camera with DP2-BSW software (Olympus soft imaging solutions GmbH, Germany).

[9] = system: pancreatic cancer stem cell spheroids; experiment: Test J: disaggregation of and apoptosis in pancreatic cancer stem cell spheroids; format: cell-based; settings: for effect on formed spheroids: added to pancreatic cancer stem cell spheroids; for exposure resulting in disaggregation of the spheroid and induction of apoptosis: as little as
Protocol: as §2, §3
DMSO (vehicle) and 3-Cl-AHPC treated spheroids were centrifuged at 1000 rpm for 5 minutes, washed in PBS, 22% bovine serum albumin added to the spheroids pellet, 95% ethanol placed on the spheroids pellet and the pellet allowed to harden for 30 minutes. Neutral buffered formalin (10%) was added to fix the cell pellet for at least 2 h and the spheroids were then placed in a labeled plastic tissue embedding cassette containing 10% neutral buffered formalin overnight. The spheroids were processed in a Sakura Tissue-Tek Processor for overnight dehydration in graded ethanol, clearing in xylene and infiltration with paraffin. The spheroids were placed in a 4 μm embedding mold for final paraffin embedding.
The TUNEL assay was performed using the In Situ Cell Death Detection kit, POD (Roche-Applied-Science, Mannheim, Germany) according to the manufacturer's instructions.
The paraffin embedding spheroids were deparaffinized and rehydrated, then tissues sections were incubated with proteinase K solution (10-20 μg/ml) for 30 min. Tissues were then rinsed twice in PBS and reacted with 50 μl of the TUNEL reaction mixture at room temperature for 60 min in a dark, humidified chamber. Sections were again rinsed in PBS and incubated for 30 min with 50 μl of the Converter-POD (RocheApplied-Science) and followed by 3-amino-9-ethylcarbazole (AEC). Sections were then counterstained with hematoxylin. As negative controls, corresponding sections were treated in the same way without terminal, deoxynucleotidyl transferase.

In the case of O=C(O)C=Cc1ccc(-c2ccc(O)c(C34CC5CC(CC(C5)C3)C4)c2)c(Cl)c1 [Compound 3-Cl-AHPC, 4-[3-(1-adamantyl)-4-hydroxyphenyl]-3-chlorocinnamic acid, reference compound], the “Solubility (μM) at 22° C. PBS (pH 7.2)” value ([1]; PBS pH 7.2) is reported as “Not detectable”, the solubility ([1]; thermodynamic from solid, distilled water pH 5, read-out: Solubility (μM) at 22° C. Distilled water (pH 5)) is reported as 4.5 µM (≈ 1.84 µg/mL) and the “cells in which induction of apoptosis was noted” value [2] is reported as 80%. For the same compound, the induction of apoptosis [3] was “Apoptosis was also noted”, the inhibition of growth [4] was “significant inhibition of growth” and the inhibition of growth [5] was “significant inhibition of growth”. The inhibition of growth [6] was “significant inhibition of growth”, the inhibition of growth [7] was “significant inhibition of growth” and the “spheroid formation by CD24+/CD44+ cells” value [8] was “inhibited their ability to form spheroids”. For the same compound, the “effect on formed spheroids” value [9] was “resulted in their disaggregation and the induction of apoptosis in the cells comprising the spheroid” and the “exposure resulting in disaggregation of the spheroid and induction of apoptosis” value [9] was 500 nM.

In the case of O=C(O)/C=C/c1cnc(-c2ccc(O)c(C34CC5CC(CC(C5)C3)C4)c2)nc1 [Compound 16, (E)-3-[2-(3-(1-Adamantyl)-4-hydroxyphenyl)-5-pyrimidinyl]-2-propenoic acid], the solubility ([1]; distilled water pH 5, read-out: Solubility (μM) at 22° C. Distilled water (pH 5)) is reported as 54 µM (≈ 20.3 µg/mL), the solubility ([1]; phosphate-buffered saline, aqueous buffer, thermodynamic from solid, PBS pH 7.2, read-out: Solubility (μM) at 22° C. PBS (pH 7.2)) is reported as 440 µM (≈ 166 µg/mL) and the “cells in which induction of apoptosis was noted” value [2] is reported as 80%. For the same compound, the induction of apoptosis [3] was “Apoptosis was also noted”, the inhibition of growth [4] was “significant inhibition of growth” and the inhibition of growth [5] was “significant inhibition of growth”. The inhibition of growth [6] was “significant inhibition of growth”, the inhibition of growth [7] was “significant inhibition of growth” and the “spheroid formation by CD24+/CD44+ cells” value [8] was “inhibited their ability to form spheroids”. For the same compound, the “effect on formed spheroids” value [9] was “resulted in their disaggregation and the induction of apoptosis in the cells comprising the spheroid” and the “exposure resulting in disaggregation of the spheroid and induction of apoptosis” value [9] was 500 nM.
